Results from PubChem BioAssay (NCI).
“And” between values parts separate entries of the source, which are not always exact repeats. Identical values can stand only once.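 Method: 48-hour compound exposure of cells in 96-well plates, five concentrations, linear interpolation of endpoints. Abbreviation: GI50, concentration required for 50% inhibition of growth. TGI: concentration producing complete growth inhibition.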 Where a SMILES comes first, the peptide text is derived from it. The star is where a group is joined. Boc = CC(C)(C)OC(=O)*; OBn = c1ccc(CO*)cc1

Experiments:
Test in all cases: growth of human tumour cells (NCI), 48 h
KM20L2 colon = tested on: KM20L2 colon
HOP-62 NSCLC = tested on: HOP-62 NSCLC
COLO 205 colon = tested on: COLO 205 colon
DMS 273 small cell lung = tested on: DMS 273 small cell lung
DMS 114 small cell lung = tested on: DMS 114 small cell lung
CAKI-1 renal = tested on: CAKI-1 renal
K-562 leukemia = tested on: K-562 leukemia
MDA-MB-231 breast = tested on: MDA-MB-231 breast
NCI-H226 lung = tested on: NCI-H226 lung
BT-549 breast = tested on: BT-549 breast
MDA-MB-435 = tested on: MDA-MB-435
MDA-N = tested on: MDA-N
M19-MEL melanoma = tested on: M19-MEL melanoma

Structure (SMILES)	TGI (KM20L2 colon)	TGI (HOP-62 NSCLC)	TGI (COLO 205 colon)	TGI (DMS 273 small cell lung)	TGI (DMS 114 small cell lung)	TGI (CAKI-1 renal)	TGI (K-562 leukemia)	TGI (MDA-MB-231 breast)	TGI (NCI-H226 lung)	TGI (BT-549 breast)	TGI (MDA-MB-435)	TGI (MDA-N)	TGI (M19-MEL melanoma)	GI50 (NCI-H226 lung)
CC(C)(C)C(=O)OCC1OC(N=[N+]=[N-])C(OC(=O)C(C)(C)C)C(OC(=O)C(C)(C)C)C1OC(=O)C(C)(C)C (configuration not stated)	> 100 µM	> 100 µM	> 100 µM	> 100 µM	> 100 µM	> 100 µM	> 100 µM	–	–	–	–	–	–	–
CCCC1C(=O)Nc2cccc3ncn(c23)C1=O (configuration not stated)	–	> 100 µM	> 100 µM	–	–	> 100 µM	> 100 µM	> 100 µM	> 100 µM	> 100 µM	> 100 µM	> 100 µM	–	–
CCOC(=O)c1c(C)nc2c(c1-c1cn(-c3ccccc3)nc1-c1ccccc1)C(=O)c1ccccc1-2	–	> 100 µM	> 100 µM	–	–	> 100 µM	> 100 µM	> 100 µM	> 100 µM	> 100 µM	> 100 µM	> 100 µM	–	–
O=c1[nH]c(=O)n(COCCO)c2ccsc12	–	> 100 µM	> 100 µM	–	–	> 100 µM	> 100 µM	> 100 µM	> 100 µM	> 100 µM	> 100 µM	> 100 µM	–	–
CN1CN(c2ccccc2)C2(CCN(CCCCCCF)CC2)C1=O	–	93.3 µM	47.3 µM	–	–	> 100 µM	> 100 µM	> 100 µM	> 100 µM	> 100 µM	> 100 µM	> 100 µM	–	–
CCOC(=O)C(NC(=O)CC)(Nc1ccc(S(=O)(=O)Nc2onc(C)c2C)cc1)C(F)(F)F (configuration not stated)	–	> 100 µM	> 100 µM	–	–	> 100 µM	> 100 µM	> 100 µM	> 100 µM	> 100 µM	> 100 µM	> 100 µM	–	–
Cc1ccc(S(=O)(=O)[C@@H](Cl)[C@H]2N=C(Cl)NN=C2c2ccccc2)cc1	–	42.7 µM	75 µM	–	–	> 100 µM	> 100 µM	46.6 µM	61 µM	59 µM	51.4 µM	74.4 µM	–	–
Cc1ccc(-c2cc(O)c3nc4ccccc4n3c2)cc1	–	> 100 µM	> 100 µM	–	–	> 100 µM	> 100 µM	> 100 µM	> 100 µM	> 100 µM	> 100 µM	> 100 µM	–	–
COc1ccccc1N=Nc1c(O)c(S(=O)(=O)O)cc2cc(S(=O)(=O)O)ccc12	–	> 100 µM	> 100 µM	–	–	> 100 µM	> 100 µM	> 100 µM	> 100 µM	> 100 µM	> 100 µM	> 100 µM	–	–
Cc1ccc(N(O)C(C)(C)C)cc1	> 100 µM	> 100 µM	> 100 µM	> 100 µM	> 100 µM	> 100 µM	> 100 µM	–	> 100 µM	–	–	–	> 100 µM	–
O=C(O)CC[P+](c1ccccc1)(c1ccccc1)c1ccccc1	–	> 100 µM	27.4 µM	–	–	> 100 µM	> 100 µM	> 100 µM	> 100 µM	81.8 µM	> 100 µM	> 100 µM	–	–
CC1(C)CC2(C)CC1CC2(O)c1ccccc1 (configuration not stated)	–	> 100 µM	> 100 µM	–	–	> 100 µM	> 100 µM	> 100 µM	> 100 µM	> 100 µM	> 100 µM	> 100 µM	–	–
Cc1cccc2nc3c(=O)[nH]c(=O)nc-3n(C)c12	–	> 100 µM	> 100 µM	–	–	> 100 µM	> 100 µM	> 100 µM	> 100 µM	> 100 µM	34.1 µM	> 100 µM	–	–
CC(=O)NNc1nc(C)c(C(=O)NNC(=O)C(=O)Nc2cccc(C(C)=O)c2)s1	> 100 µM	68.2 µM	> 100 µM	> 100 µM	34.2 µM	31.6 µM	> 100 µM	–	62 µM	–	–	–	43.5 µM	–
CC(C)CC(NC(=O)OC(C)(C)C)C(=O)NC(CC(=O)OCc1ccccc1)C(=O)OCc1ccccc1 (stereo not drawn) (Boc-Leu-Asp(OBn)-OBn; configuration not given here)	–	> 100 µM	> 100 µM	–	–	> 100 µM	> 100 µM	> 100 µM	> 100 µM	> 100 µM	> 100 µM	> 100 µM	–	–
CS(=O)(=O)c1nc(-c2cc3c(c(S(C)(=O)=O)n2)CCC3)cc2c1CCCC2	–	78.6 µM	> 100 µM	–	–	38 µM	> 100 µM	> 100 µM	> 100 µM	83.8 µM	> 100 µM	> 100 µM	–	–
CC(C)=CCOc1cc(NC(=S)c2ccsc2C)ccc1Cl	–	58.9 µM	> 100 µM	–	–	> 100 µM	> 100 µM	83.4 µM	> 100 µM	> 100 µM	> 100 µM	> 100 µM	–	–
CC(C)OP(=O)(OC(C)C)C1=NN(c2ccc([N+](=O)[O-])cc2)C(P(=O)(OC(C)C)OC(C)C)=NN1c1ccc([N+](=O)[O-])cc1	> 100 µM	> 100 µM	> 100 µM	> 100 µM	> 100 µM	> 100 µM	> 100 µM	–	> 100 µM	–	–	–	> 100 µM	–

Structure (SMILES)	TGI (KM20L2 colon)	TGI (HOP-62 NSCLC)	TGI (COLO 205 colon)	TGI (DMS 273 small cell lung)	TGI (DMS 114 small cell lung)	TGI (CAKI-1 renal)	TGI (K-562 leukemia)	TGI (MDA-MB-231 breast)	TGI (NCI-H226 lung)	TGI (BT-549 breast)	TGI (MDA-MB-435)	TGI (MDA-N)	TGI (M19-MEL melanoma)	GI50 (NCI-H226 lung)
C[S+](C)CC1OC(n2cnc3c(N)ncnc32)C(O)C1O (configuration not stated)	> 225 µM	> 225 µM	> 225 µM	> 225 µM	> 225 µM	> 225 µM	> 225 µM	–	> 225 µM	–	–	–	> 225 µM	–
COC(=O)[C@@](C)(COC(=O)C(C)(C)C)NC(=O)OC(C)(C)C	–	> 100 µM	> 100 µM	–	–	> 100 µM	> 100 µM	> 100 µM	> 100 µM	> 100 µM	> 100 µM	> 100 µM	–	–
CN(C)CCNC(=O)c1cccc2cc3cc(O)ccc3nc12	8.13 µM	2.94 µM	3.88 µM	2.52 µM	3.13 µM	–	11.8 µM	–	2.48 µM	–	–	–	3.68 µM	–
COc1ccc2nc3c(c(NCCCN(C)C)c2c1)CCCC3	22.4 µM	30.9 µM	23 µM	24.8 µM	28.5 µM	27.9 µM	8.3 µM	–	30.7 µM	–	–	–	31 µM	–
CCCCCCCCCC(=O)N[C@@H](c1ccco1)[C@@H](O)C(=O)O[C@H]1C[C@@]2(O)[C@@H](OC(=O)c3ccccc3)[C@@H]3[C@]4(OC(C)=O)CO[C@@H]4C[C@H](O)[C@@]3(C)C(=O)[C@H](OC(C)=O)C(=C1C)C2(C)C	–	1.68 µM	0.0335 µM	–	–	> 38.9 µM	> 50 µM	4.47 µM	9.53 µM	1.07 µM	0.0345 µM	0.00909 µM	–	–
Cc1ccc(Sc2ccccc2[N+](=O)[O-])cc1	> 100 µM	> 100 µM	62.3 µM	82.5 µM	–	–	> 100 µM	–	71.2 µM	–	–	–	> 100 µM	–
[O-][n+]1c(CN2CCCCC2)nc2cccc3c2c1-c1ccccc1-3	–	48.6 µM	64.3 µM	–	–	81.7 µM	> 100 µM	95.6 µM	39.8 µM	> 100 µM	68 µM	58.4 µM	–	–
O=NN(CCF)C(=O)NC1CC2CCC1C2 (configuration not stated)	> 100 µM	97.7 µM	> 100 µM	> 100 µM	> 100 µM	> 100 µM	> 100 µM	–	–	–	–	–	> 100 µM	–
COCC1OC(S(=O)(=O)c2ccccc2)C(O)C(OC)C1OC (configuration not stated)	–	> 100 µM	> 100 µM	–	–	> 100 µM	> 100 µM	> 100 µM	> 100 µM	> 100 µM	> 100 µM	> 100 µM	–	–
CN(C)c1ccc(/C=C/C(=O)N[C@@H]2C(=O)N3[C@@H]2SC(C)(C)[C@@H]3C(=O)O)cc1	–	> 100 µM	> 100 µM	–	–	> 100 µM	> 100 µM	> 100 µM	> 100 µM	> 100 µM	> 100 µM	> 100 µM	–	–
CCOC(=O)c1cc2c(OCc3ccccc3)c(OC)cc3c2c(n1)N(c1ccc(OC)cc1)C(C)C3 (configuration not stated)	> 50 µM	> 50 µM	> 50 µM	> 50 µM	> 50 µM	> 50 µM	> 50 µM	–	–	–	–	–	> 50 µM	–
O=c1c2ccccc2nc(-c2ccccc2)n1NC(=S)Nc1ccc(Cl)cc1	–	> 100 µM	> 100 µM	> 100 µM	> 100 µM	> 100 µM	> 100 µM	–	> 100 µM	–	–	–	> 100 µM	–
NC(Cc1c[nH]c2cc([N+](=O)[O-])ccc12)C(=O)O (configuration not stated)	–	> 100 µM	> 100 µM	–	–	> 100 µM	> 100 µM	> 100 µM	> 100 µM	> 100 µM	> 100 µM	> 100 µM	–	–
Nc1nccc(NCC2(CO)CCC2)n1	–	> 100 µM	> 100 µM	–	–	> 100 µM	> 100 µM	> 100 µM	> 100 µM	> 100 µM	> 100 µM	> 100 µM	–	–
CCN(CC)CCCNC(=O)c1cc2cc(NC(=O)c3cc4cc([N+](=O)[O-])ccc4[nH]3)ccc2[nH]1	–	93.4 µM	> 100 µM	–	–	> 100 µM	> 100 µM	> 100 µM	> 100 µM	> 100 µM	> 100 µM	> 100 µM	–	–
CCC(COC(=O)CC[C@@H](NC(=O)C(C)NC(=O)C(C)OC1C(O)C(CO)OC(OCc2ccccc2)C1NC(C)=O)C(N)=O)NC1c2ccccc2Nc2cccc([N+](=O)[O-])c21 (some centres not stated)	> 100 µM	> 100 µM	> 100 µM	> 100 µM	> 100 µM	> 100 µM	> 100 µM	–	> 100 µM	–	–	–	> 100 µM	–
Cc1cn(C2CC(CCCO)C(CO)O2)c(=O)[nH]c1=O (configuration not stated)	> 100 µM	> 100 µM	> 100 µM	> 100 µM	> 100 µM	> 100 µM	> 100 µM	–	> 100 µM	–	–	–	> 100 µM	> 100 µM and 18.4 µM
COc1cccc(/C(Cl)=C(\C=O)c2cccc(OC)c2)c1	47.8 µM	30.1 µM	24.2 µM	28.5 µM	16.4 µM	70 µM	46 µM	–	24.8 µM	–	–	–	29 µM	–
